Experimental data: patent US5624957A, “Rary-specific retinobenzoic acid derivatives” (Bristol-Myers Squibb Company, priority 1995, dated 1997)

Experiments:
[1] = systemic use; cited from earlier work
[2] = rat, in vivo, po, 150 mg/kg
Source text: Compounds having the beneficial pharmacological effects of retinoids but without retinoid-induced hypertriglyceridemia would be especially desirable for oral retinoid therapy.

[3] = tested on: Rhino Mouse Utriculi; assay: Rhino mouse model, reduction of utriculi (comedolytic activity); type: in vivo; details: for ED30 (the concentration producing a 30% reduction in the rhino mouse utriculi): interpolation of regression lines of log concentration-percent reduction plots
Description: When representative compounds of the present invention were tested using that same procedure, the ED30 (the concentration producing a 30% reduction in the rhino mouse utriculi) values calculated by interpolation of the regression lines of the log concentration-percent reduction plots were as follows: […]

[4] = target: T1, RARγ (Homo sapiens, UniProt P13631); assay: Receptor transactivation assay, RARγ (CAT reporter, HeLa cells); type: cell-based
T1 construct: expressed in transfected cells; host or cells: HeLa
T1 sequence (P13631 1-454): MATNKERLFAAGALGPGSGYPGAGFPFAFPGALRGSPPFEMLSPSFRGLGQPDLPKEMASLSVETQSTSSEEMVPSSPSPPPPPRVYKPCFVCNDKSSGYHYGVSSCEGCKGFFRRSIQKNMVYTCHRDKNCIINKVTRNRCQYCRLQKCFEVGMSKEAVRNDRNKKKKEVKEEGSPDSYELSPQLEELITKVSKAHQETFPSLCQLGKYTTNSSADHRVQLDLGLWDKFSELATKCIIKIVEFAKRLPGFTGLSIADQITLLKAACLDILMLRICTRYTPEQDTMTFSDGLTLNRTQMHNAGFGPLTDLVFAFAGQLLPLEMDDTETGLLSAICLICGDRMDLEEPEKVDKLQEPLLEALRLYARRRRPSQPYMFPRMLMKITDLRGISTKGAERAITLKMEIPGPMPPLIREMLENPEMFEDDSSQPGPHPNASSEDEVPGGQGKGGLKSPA
Description: (§1) Activation of just one receptor and failure to activate another is the basis for selectivity/specificity.
(§2) In the retinoid transactivation assay, HeLa cells are co-transfected with DNA encoding RAR α, β, or γ, and an RAR-responsive CAT (chloramphenicol acetyltransferase) reporter gene. Retinoid efficacy is measured by the concentration of induced CAT gene product as determined by ELISA assay. […] The mean EC50 value for each of the receptors is calculated using a computer generated induced-fit program.

[5] = target: T2, RARβ (Homo sapiens, UniProt P10826); assay: Receptor transactivation assay, RARβ (CAT reporter, HeLa cells); type: cell-based
T2 construct: expressed in transfected cells; host or cells: HeLa
T2 sequence (P10826 1-448 isoform P10826-2): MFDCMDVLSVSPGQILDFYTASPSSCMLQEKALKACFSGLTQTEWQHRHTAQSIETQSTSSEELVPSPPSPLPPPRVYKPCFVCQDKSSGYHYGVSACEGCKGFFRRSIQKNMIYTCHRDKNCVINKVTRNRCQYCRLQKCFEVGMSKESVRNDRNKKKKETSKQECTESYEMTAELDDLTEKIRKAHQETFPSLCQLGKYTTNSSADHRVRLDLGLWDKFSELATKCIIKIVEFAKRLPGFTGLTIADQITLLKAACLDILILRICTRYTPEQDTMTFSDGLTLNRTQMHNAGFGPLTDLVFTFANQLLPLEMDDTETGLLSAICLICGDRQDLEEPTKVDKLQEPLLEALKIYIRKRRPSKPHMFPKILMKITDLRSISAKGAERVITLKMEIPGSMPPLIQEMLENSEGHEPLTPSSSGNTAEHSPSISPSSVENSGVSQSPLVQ
Description: as §1, §2

[6] = target: T3, RARα (Homo sapiens, UniProt P10276); assay: Receptor transactivation assay, RARα (CAT reporter, HeLa cells); type: cell-based
T3 construct: expressed in transfected cells; host or cells: HeLa
T3 sequence (P10276 1-462): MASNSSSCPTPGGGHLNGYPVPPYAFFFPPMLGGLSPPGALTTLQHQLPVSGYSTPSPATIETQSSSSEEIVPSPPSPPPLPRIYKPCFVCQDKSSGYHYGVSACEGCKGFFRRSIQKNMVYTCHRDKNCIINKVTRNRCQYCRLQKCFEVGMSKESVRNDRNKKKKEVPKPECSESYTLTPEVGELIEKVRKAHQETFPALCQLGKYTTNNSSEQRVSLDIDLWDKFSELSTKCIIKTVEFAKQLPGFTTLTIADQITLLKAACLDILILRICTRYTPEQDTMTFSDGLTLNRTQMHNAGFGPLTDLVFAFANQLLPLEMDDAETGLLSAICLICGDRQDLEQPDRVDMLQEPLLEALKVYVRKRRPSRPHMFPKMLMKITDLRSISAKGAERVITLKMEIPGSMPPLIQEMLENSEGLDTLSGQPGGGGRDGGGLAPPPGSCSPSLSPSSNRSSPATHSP
Description: as §1, §2

[7] = tested on: RAR α, β, or γ; assay: Receptor transactivation assay, RAR subtypes taken together; type: cell-based; details: read-out: EC50 for retinoic acid; varies for given receptors; usually in this range
Source text: Activation of just one receptor and failure to activate another is the basis for selectivity/specificity. In our definitions, "selectivity" means that the compound preferentially activates one receptor but also activates at least one other at a higher concentration and "specificity" means that the compound activates only one receptor in the concentration range tested. The details of the receptor-based transactivation assay are disclosed in the literature, e.g. see Nature 1988, 332, 850-853.
as §2, with “assay. Retinoic acid (RA) is used as a reference compound.” for “assay.”
"N.A." means that the compound had no transactivation at any dose tested (up to 10^-6 M).

Row | SMILES | Transactivation ratio γ (EC50 of test compound / EC50 of retinoic acid) [4] | ED30 (the concentration producing a 30% reduction in the rhino mouse utriculi) [3] [µM] | other results
1 | CC1=C(/C=C/C(C)=C/C=C/C(C)=C\C(=O)O)C(C)(C)CCC1 [13-cis-retinoic acid] | – | – | Elevation in triglyceride levels, fraction of patients treated [1]: […]; Increase in serum triglyceride levels [2]: ~ 350%
2 | CC1(C)CCC(C)(C)c2cc(C(O)C(=O)Nc3ccc(C(=O)O)cc3F)ccc21 (stereo not shown) [Example 1, 3-Fluoro-4(2'(5",6",7",8"-tetrahydro-5",5",8",8"-tetramethyl-2"-naphthyl)-2'-hydroxy)acetamidobenzoic acid] | – | 155 | –

Continued, in another order:

Row | Transactivation ratio γ (EC50 of test compound / EC50 of retinoic acid) [4] | SMILES | ED30 (the concentration producing a 30% reduction in the rhino mouse utriculi) [3] [µM] | other results
4 | 6.7 | CC1(C)CCC(C)(C)c2cc(C(O)C(=O)Nc3ccc(C(=O)O)cc3)ccc21 (stereo not shown) [Example 2] | – | Transactivation ratio β (EC50 of test compound / EC50 of retinoic acid) [5]: 50; Transactivation ratio α (EC50 of test compound / EC50 of retinoic acid) [6]: 66.7
5 | 13.3 | CC1(C)CCC(C)(C)c2cc(C(O)C(=O)Nc3ccc(C(=O)O)cc3Cl)ccc21 (stereo not shown) [Example 6] | – | –
6 | 40 | CC1(C)CCC(C)(C)c2cc(C(O)C(=O)Nc3ccc(C(=O)O)cc3O)ccc21 (stereo not shown) [Example 7] | – | Reduction in rhino mouse utriculi ([3]; at 16.5 mM): 32%
7 | 66.7 | Cc1cc(C(=O)O)ccc1NC(=O)C(O)c1ccc2c(c1)C(C)(C)CCC2(C)C (stereo not shown) [Example 8] | 1050 | –
